In paper PMC4821601, “The Interactions of P-Glycoprotein with Antimalarial Drugs, Including Substrate Affinity, Inhibition and Regulation” (PLoS ONE, 2016):
Where two headings read alike, the source gives them in different places.

How the values were obtained:
P-glycoprotein (P-gp) = molecular target: T1, P-glycoprotein (P-gp) (Homo sapiens, UniProt P08183); assay: Bidirectional transport of rhodamine123 through Caco-2 monolayers co-incubated with antimalarials (P-gp inhibitory properties); assay type: in vitro ADME
T1 construct: In-vitro Caco-2 cell monolayers were used here as a model for potential drug absorption related problems and P-gp mediated transport of drugs; endogenous in cells; host or cells: Caco-2 (human colon carcinoma, ATCC)
T1 sequence (P08183 whole entry): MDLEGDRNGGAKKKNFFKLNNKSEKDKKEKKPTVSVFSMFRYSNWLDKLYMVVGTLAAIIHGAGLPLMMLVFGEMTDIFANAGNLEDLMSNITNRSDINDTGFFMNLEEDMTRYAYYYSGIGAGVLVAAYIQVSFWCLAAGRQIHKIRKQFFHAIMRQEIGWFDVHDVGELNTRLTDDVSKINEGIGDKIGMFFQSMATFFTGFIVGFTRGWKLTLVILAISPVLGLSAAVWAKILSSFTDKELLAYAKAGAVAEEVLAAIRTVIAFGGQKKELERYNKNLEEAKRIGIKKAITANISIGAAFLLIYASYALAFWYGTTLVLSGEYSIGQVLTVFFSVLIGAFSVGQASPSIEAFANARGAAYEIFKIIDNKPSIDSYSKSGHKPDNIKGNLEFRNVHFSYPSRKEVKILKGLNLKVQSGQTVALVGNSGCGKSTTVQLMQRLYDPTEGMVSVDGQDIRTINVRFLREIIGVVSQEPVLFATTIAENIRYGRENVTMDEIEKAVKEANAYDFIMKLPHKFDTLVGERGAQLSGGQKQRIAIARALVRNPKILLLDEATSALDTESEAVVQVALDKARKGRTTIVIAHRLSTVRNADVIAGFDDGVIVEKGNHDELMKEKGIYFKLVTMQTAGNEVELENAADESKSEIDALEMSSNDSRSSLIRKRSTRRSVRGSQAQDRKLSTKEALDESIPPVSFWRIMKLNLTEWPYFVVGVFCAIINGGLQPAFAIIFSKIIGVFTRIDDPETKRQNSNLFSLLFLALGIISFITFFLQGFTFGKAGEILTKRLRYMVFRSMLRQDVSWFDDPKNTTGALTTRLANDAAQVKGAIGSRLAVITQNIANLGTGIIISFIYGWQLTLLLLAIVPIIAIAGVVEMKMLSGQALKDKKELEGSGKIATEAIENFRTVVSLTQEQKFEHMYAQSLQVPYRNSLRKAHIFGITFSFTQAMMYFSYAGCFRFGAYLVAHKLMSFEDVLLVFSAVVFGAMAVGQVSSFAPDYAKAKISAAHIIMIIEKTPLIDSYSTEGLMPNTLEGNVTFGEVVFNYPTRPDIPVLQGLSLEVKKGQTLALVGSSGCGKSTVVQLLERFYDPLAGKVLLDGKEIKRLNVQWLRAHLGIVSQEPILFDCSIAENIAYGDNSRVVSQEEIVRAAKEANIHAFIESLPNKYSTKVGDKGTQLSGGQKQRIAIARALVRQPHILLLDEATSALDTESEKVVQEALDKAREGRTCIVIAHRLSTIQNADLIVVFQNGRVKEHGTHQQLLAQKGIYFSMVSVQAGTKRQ
Procedure: The Caco-2 cells were seeded on 0.6 cm^2 […] Millipore PCF™ filter inserts at the cell density of 65,000 cells/cm^2 as done previously in the lab. Briefly, the cells were grown for 21–24 days to allow full maturation and formation of tight monolayers. The initial experiments were conducted in mid-40s passage cells and repeated in early 80s passage Caco-2 cells. The Trans epithelial electrical resistance (TEER) was measured immediately before and after the experiment using an epithelial voltage/ohm meter and an ENDOHM 12 chamber (World precision instruments, Sarasota, FL). TEER values were measured both before and after the study with readings above 300 Ω.cm^2 considered as acceptable for tight junctions. […] In order to maintain equivalent transport medium (HBSS/HBSS with inhibitor) level both outside and inside the chambers, 300 μL was used as medium in the apical chambers and 600 μL in the basolateral chambers. […] Drugs were co-incubated with MRCP, BCRP and ATP hydrolysis blockers to determine the involvement of other efflux mechanisms. Prior to the experiment, the transport medium, HBSS or HBSS with P-gp inhibitors were pre-incubated with the cells for 30 minutes. Following incubation, inserts were placed in new well plates and donor chamber is replaced with drug or drug with inhibitor and the receiver chamber with blank HBSS or HBSS with inhibitor. Transport medium was collected from the receiver chamber after stirring at time intervals of 30, 60, 90 and 120 minutes and was replaced with the same volume of fresh HBSS, or HBSS with inhibitor, when P-gp inhibitors were used in the study. At the end of the experiment 100 μL of medium was removed from the donor chamber in addition to medium collected from the receiver chamber during the study. The cells were then washed thoroughly in cold (4°C) PBS and cell membranes attached to the inserts were sonicated for 10 minutes in a sonicating water bath and centrifuged at 10,000 g for 10 minutes. Supernatant was frozen at -80°C until assayed. The Papp values of three well plates were determined using methods modified from Artursson’s group as described by Crowe and Lemaire.
CL.vol=Aa/{[Cd0×Vd−[Aa+(Ca×Vs)]−(Ac)×n/nfin]/Vd}
CL.vol = clearance volume (mL), n = time (min), Aa = amount in acceptor compartment at time n (pmols), Cd0 = concentration in donor compartment at time zero (nM), Vd = volume of the donor compartment (mL), Ca = concentration in acceptor compartment at the previous time point (nM), Vs = sample volume of previous time point (mL), Ac = amount of compound associated with the cells (pmol), Nfin = final time point (min). Papp = Apparent permeability (cm/sec) Rate of clearance (mL/min)=CL.vol / n Papp (cm/sec)=Rate of clearance / Surface area (cm^2)
The cleared volume was plotted against time and the slope of the regression line was divided by the surface area to obtain the Papp values. […] Mean Papp for Bas-Ap direction was divided by the Ap-Bas direction to obtain the efflux ratio and values above two were considered as drugs having true efflux transport.

[1] = Bidirectional transport (Papp, efflux ratio) of antimalarials through Caco-2 cell monolayers; assay type: in vitro ADME, human; settings: human; for Papp at 120 min: Caco-2, Caco-2 monolayers
Procedure: (§1) The initial experiments were conducted in mid-40s passage cells and repeated in early 80s passage Caco-2 cells. […] In order to maintain equivalent transport medium (HBSS/HBSS with inhibitor) level both outside and inside the chambers, 300 μL was used as medium in the apical chambers and 600 μL in the basolateral chambers. […] Drugs were co-incubated with MRCP, BCRP and ATP hydrolysis blockers to determine the involvement of other efflux mechanisms. Prior to the experiment, the transport medium, HBSS or HBSS with P-gp inhibitors were pre-incubated with the cells for 30 minutes. Following incubation, inserts were placed in new well plates and donor chamber is replaced with drug or drug with inhibitor and the receiver chamber with blank HBSS or HBSS with inhibitor. Transport medium was collected from the receiver chamber after stirring at time intervals of 30, 60, 90 and 120 minutes and was replaced with the same volume of fresh HBSS, or HBSS with inhibitor, when P-gp inhibitors were used in the study. At the end of the experiment 100 μL of medium was removed from the donor chamber in addition to medium collected from the receiver chamber during the study. The cells were then washed thoroughly in cold (4°C) PBS and cell membranes attached to the inserts were sonicated for 10 minutes in a sonicating water bath and centrifuged at 10,000 g for 10 minutes. Supernatant was frozen at -80°C until assayed. […] CL.vol=[…].vol = clearance volume (mL), n = time (min), Aa = amount in acceptor compartment at time n (pmols), Cd0 = concentration in donor compartment at time zero (nM), Vd = volume of the donor compartment (mL), Ca = concentration in acceptor compartment at the previous time point (nM), Vs = sample volume of previous time point (mL), Ac = amount of compound associated with the cells (pmol), Nfin = final time point (min). […] The cleared volume was plotted against time and the slope of the regression line was divided by the surface area to obtain the Papp values. […] The method from Davis and colleagues was adopted with slight modifications. Separations were performed using an Apollo C18 (5 μm, 4.6x150mm) column attached to a matched guard column (5 μm, 4.6x5.5 mm). […] The injection volume was 40 μL and column oven was maintained at 35°C. The analytes were detected at 222 nm and the retention time was 5.6 minutes. Assay developed by Pussard and co-workers were used and slight modifications were done to adjust laboratory conditions. Separation was done using a Prevail C18 (3 μm, 4.6x150mm) column attached to a Direct-connect^TM universal column prefilter. The mobile phase consisted of 20 mM (w/v) KH2PO4 in deionized water at pH 3.0 and acetonitrile (82:18) v/v. […] The injection volume was 40 μL and column oven was maintained at 30°C. The analytes were detected at 343 nm with a retention time of 2.4 minutes. […] Separations were performed using an Apollo C18 (5 μm, 4.6x150mm) column attached to matched guard column (5 μm, 4.6x5.5mm). […] The injection volume was 40 μL and column oven was maintained at 30°C. The analytes were detected at 660 nm with a retention time of 3.8 minutes. A 40 μL sample was spiked with 5 μL 0.5 mM artemisinin internal standard. […] The pipettor was adjusted to the maximum volume (100 μL). […] Pre-treated samples were loaded into the tips by gently aspirating and discarding into the same vial. The process was repeated 10 times in order to increase binding efficiency of drugs to the OMIX 96 C4 matrix. […] The LC-MS method described by […] and co-workers were modified to suit the LC-MS-MS conditions. […] Wexford, Ireland) at 40°C. […] Quantitation was performed in multiple reactions monitoring, MRM mode, using DUIS (ESI^+ and APCI^+) ion sources. […] The optimized mass spectra were acquired with an interface voltage of 4.5 kV, a detector voltage of 1.0 kV, a heat block temperature of 500°C and a desolvation temperature of 160°C.

Caco-2 cell monolayers = assay: as above; assay type: in vitro ADME, human
Procedure: as §1

[2] = parameters: method as in PMID 17337512; settings: monkeys ref 14; cited from earlier work

## C[C@H]1[C@H](N2CCS(=O)(=O)CC2)O[C@@H]2O[C@@]3(C)CC[C@H]4[C@H](C)CC[C@@H]1[C@@]24OO3 [AM, artemisone]
P-glycoprotein (P-gp); at 100 μM
  P-gp inhibitory properties: did not exhibit P-gp inhibitory properties
P-glycoprotein (P-gp); at test concentrations
  P-gp inhibitory properties: did not exhibit P-gp inhibitory properties
[1]; drug alone, read-out: Ap-Bas directional Papp, range over concentrations tested
  Papp at 120 min: 37 to 60 ×10⁻⁶ cm/s
[1]; drug alone, read-out: Bas-Ap directional Papp, range over concentrations tested
  Papp at 120 min: 35 to 47 ×10⁻⁶ cm/s
[1]; read-out: permeability across the gastrointestinal epithelium (class)
  Papp at 120 min: > 25 ×10⁻⁶ cm/s
[1]; summary in abstract, methylene blue depending on the direction of transport, read-out: permeability
  Papp at 120 min: ~50 ×10⁻⁶ cm/s
[1]; Caco-2, Conc (μM) + inhibitor (μM): 10, Bas-Ap divided by Ap-Bas
  efflux ratio at 120 min, 10 µM: 0.8
[1]; Caco-2, Conc (μM) + inhibitor (μM): 10, first-named drug measured, read-out: Papp Ap-Bas
  Papp at 120 min, 10 µM: 59.6 ± 4.2 ×10⁻⁶ cm/s
[1]; Caco-2, Conc (μM) + inhibitor (μM): 10, first-named drug measured, read-out: Papp Bas-Ap
  Papp B→A at 120 min, 10 µM: 46.9 ± 8.5 ×10⁻⁶ cm/s
[1]; Caco-2, Conc (μM) + inhibitor (μM): 20, Bas-Ap divided by Ap-Bas
  efflux ratio at 120 min, 20 µM: 0.9
[1]; Caco-2, Conc (μM) + inhibitor (μM): 20, first-named drug measured, read-out: Papp Ap-Bas
  Papp at 120 min, 20 µM: 37 ± 4.7 ×10⁻⁶ cm/s
[1]; Caco-2, Conc (μM) + inhibitor (μM): 20, first-named drug measured, read-out: Papp Bas-Ap
  Papp B→A at 120 min, 20 µM: 34.7 ± 2.7 ×10⁻⁶ cm/s
Caco-2 cell monolayers; Conc (μM) + inhibitor (μM): 10
  Net flow direction: Diffusion (0.25)
Caco-2 cell monolayers; Conc (μM) + inhibitor (μM): 20
  Net flow direction: Diffusion (0.69)
Caco-2 cell monolayers; based on FDA biopharmaceutical classification system
  drug absorption predicted from Papp: 100%
[2]
  in-vivo bioavailability: higher in-vivo bioavailability compared to artesunate
